Among the data in paper PMC4309172, “Binding of a fluorescence reporter and a ligand to an odorant-binding protein of the yellow fever mosquito, Aedes aegypti” (F1000Research, 2015) are Kd values, retold here.

The term Kd denotes the free concentration of one partner at which half of the binding sites on the other are occupied at equilibrium, for simple one-to-one binding. A lower Kd goes with a tighter complex.

The target in assay [1] is T1, AaegOBP1 (odorant-binding protein, also named AaegOBP39) (Aedes aegypti, UniProt Q6Y2R8).
T1 construct: recombinant AaegOBP1 (AY189223), periplasmic expression in BL21(DE3), purified and delipidated
T1 sequence (Q6Y2R8 19-143): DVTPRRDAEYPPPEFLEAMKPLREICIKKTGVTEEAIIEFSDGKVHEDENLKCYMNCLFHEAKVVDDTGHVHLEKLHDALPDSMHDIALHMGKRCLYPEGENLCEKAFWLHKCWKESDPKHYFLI
The assay can be described thus: NPN fluorescence displacement/quenching, pH […]; Kd from decreasing phase only ([…]), fluorescence rises at higher doses.

Assay [2] has as its target T1, AaegOBP1 (odorant-binding protein, also named AaegOBP39). The assay is described as follows: direct fluorescence titration with NPN, pH […] (Kd […] at pH […]).

As for `CCCCCCCCCC[C@H](OC(C)=O)[C@H]1CCCC(=O)O1` (racemic) [MOP, (5 R,6 S)-6-acetoxy-5-hexadecanolide], the Kd in assay [1] was 2640 ± 160 nM.
Consider `c1ccc(Nc2cccc3ccccc23)cc1` [NPN, N-phenyl-1-naphthylamine], for which, in assay [2], binding was put at a Kd of 3.31 ± 0.48 µM.
